Experiment: DPPH radical scavenging antioxidant test
Assay type: biochemical
Details: 517 nm; for Inhibition (radical scavenging inhibition): 0.2 mL DPPH (0.75 mM), compound 3 μM in ethanol, 30 minutes in the dark
Experimental: The antioxidant properties of the 8-((4-hydroxyphenyl)diazenyl)naphthalene-1,3-disulfonic acid compound were studied by adding 0.2 mL DPPH (0.75 mM)) to 8-((4-hydroxyphenyl)diazenyl)naphthalene-1,3-disulfonic acid (III) (3 μM) in ethanol. After 30 minutes of incubation in the dark, the absorbance was read against a blank at 517 nm. Ascorbic acid (vitamin C) was used as standard antioxidants (positive control). A blank sample was prepared by 0.2 ml of DPPH in 3 mL ethanol. A negative control sample was run using ethanol instead of the sample. The radical scavenging inhibition was calculated using the following equation: […]
The antioxidant activity for the synthesized compound is listed in Table 1, using Vitamin C as a reference.

Row | Structure (SMILES) | Inhibition (radical scavenging inhibition) [%] | antioxidant potential in DPPH test compared to vitamin C (in words) (DPPH in vitro test, vitamin C as positive control)
1 | O=C1O[C@H]([C@@H](O)CO)C(O)=C1O [vit c, Ascorbic acid, reference compound] | 74 | –
2 | O=S(=O)(O)c1cc(S(=O)(=O)O)c2c(/N=N/c3ccc(O)cc3)cccc2c1 [Product III, 8-((4-hydroxyphenyl)diazenyl)naphthalene-1,3-disulfonic acid] | 52 | high potential as an antioxidant compared to vitamin C

Reference: US20250136544A1, “8-((4-HYDROXY-3-METHYLPHENYL)DIAZENYL)NAPHTHALENE-1,3-DISULFONIC ACID AS AN ANTIMICROBIAL COMPOUND” (KING FAISAL UNIVERSITY, priority 2023, published 2025)
